Test results from patent US8211894B2, “Heteroarylalkyl-8-azabicyclo[3.2.1]octane compounds as mu opioid receptor antagonists” (Theravance, Inc., priority 2007, dated 2012).
Where two headings read alike, the source gives them in different places.

Legend:
human mu opioid receptor [1] = molecular target: T1, human mu opioid receptor (Homo sapiens, UniProt P35372); assay: Radioligand binding assay, human mu opioid receptor ([3H]-Diprenorphine displacement)
T1 construct: host or cells: CHO-K1

human mu opioid receptor [2] = molecular target: T1, human mu opioid receptor; assay: Human mu GTP-Eu nucleotide exchange assay (agonist mediated activation, CHO-K1 membranes); type: biochemical; conditions: bound GTP-Eu relative to DAMGO (IA=100); read-out: intrinsic activity (IA), expressed as a percentage
[3] = test system: loperamide-induced delayed gastric emptying; assay: Rat gastric emptying assay (reversal of loperamide-induced delayed gastric emptying); type: in vivo; conditions: administered orally, loperamide 1 mg/kg s.c., gastric emptying model
Experimental: Assay 3: Rat Model of In Vivo Efficacy In this assay the efficacy of test compounds was evaluated in a model of gastrointestinal transit, which evaluates peripheral activity. This study was approved by the Institutional Animal Care and Use Committee at […]. and conformed to the Guide for the Care and Use of Laboratory Animals published by the National Academy of Sciences (©1996). a. Rat Gastric Emptying Assay Test compounds were evaluated in the rat gastric emptying assay to determine their ability to reverse loperamide-induced delayed gastric emptying. […] The administration of test compound was followed by subcutaneous administration of loperamide at a dose of 1 mg/kg or vehicle. Five minutes post loperamide or vehicle administration, a non-nutritive, non-absorbable charcoal meal was administered via oral gavage and animals were allowed free access to water for the sixty minute duration of the experiment. […] Gastric weight was then determined after removal of the ligatures. b. Data Analysis and Results Data was analyzed using the GraphPad Prism Software package (GraphPad Software, Inc., San Diego, Calif.). Percent reversal curves were constructed by non-linear regression analysis using the sigmoidal dose response (variable slope) model and best-fit ID50 values were calculated. […]

[4] = [3H]-Diprenorphine 0.5 nM, CHO-K1 membranes, read-out: pKi at the human mu opioid receptor (converted)

T1 sequence (P35372 whole entry): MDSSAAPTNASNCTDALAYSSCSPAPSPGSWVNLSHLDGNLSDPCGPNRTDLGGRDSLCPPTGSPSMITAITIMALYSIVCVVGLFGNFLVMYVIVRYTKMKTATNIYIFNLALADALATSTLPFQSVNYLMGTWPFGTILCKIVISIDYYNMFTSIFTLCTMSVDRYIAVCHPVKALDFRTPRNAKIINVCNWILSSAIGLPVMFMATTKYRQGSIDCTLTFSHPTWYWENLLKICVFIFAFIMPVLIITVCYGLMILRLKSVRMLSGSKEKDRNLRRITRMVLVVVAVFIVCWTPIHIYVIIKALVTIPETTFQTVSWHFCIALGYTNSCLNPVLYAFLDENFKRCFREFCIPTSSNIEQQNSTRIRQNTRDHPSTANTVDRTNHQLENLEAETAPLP

SMILES | Ki (human mu opioid receptor [1]; [4]) | Emax (human mu opioid receptor [2]) | ID50, dose required for 50% reversal of the effects of loperamide [3] | Ki (human mu opioid receptor [1])
NC(=O)c1cccc([C@H]2C[C@H]3CC[C@@H](C2)N3Cc2cncn2Cc2ccccc2)c1 [Example 11, 3-endo-[8-(3-Benzyl-1H-imidazol-4-ylmethyl)-8-aza-bicyclo[3.2.1]oct-3-yl]-benzamide] | 0.631 nM | 6% | – | –
NC(=O)c1cccc([C@H]2C[C@H]3CC[C@@H](C2)N3Cc2cn(C3CCCCC3)nn2)c1 [Example 1, 3-endo-[8-(1-Cyclohexyl-1H-[1,2,3]-triazol-4-ylmethyl)-8-azabicyclo[3.2.1]oct-3-yl]benzamide] | – | -4% | 0.13 mg/kg | 0.0501 nM
CCCc1cn(CCN2[C@@H]3CC[C@H]2C[C@@H](c2cccc(C(N)=O)c2)C3)nn1 [Example 8, 3-endo-{8-[2-(4-Propyl-[1,2,3]-triazol-1-yl)-ethyl]-8-aza-bicyclo[3.2.1]oct-3-yl}benzamide] | 0.0794 nM | -4% | – | –
CC(C)Cc1nc(CCCN2[C@@H]3CC[C@H]2C[C@@H](c2cccc(C(N)=O)c2)C3)no1 [Example 14, 3-endo-{8-[3-(5-Isobutyl-1,2,4-oxadiazol-3-yl)-propyl]-8-aza-bicyclo[3.2.1]oct-3-yl}benzamide] | 1.58 nM | -11% | – | –
NC(=O)c1cccc([C@H]2C[C@H]3CC[C@@H](C2)N3Cc2cn(C3CCC(F)(F)CC3)nn2)c1 [Example 4, 3-endo-{8-[1-(4,4-Difluorocyclohexyl)-1H-1,2,3-triazol-4-ylmethyl]-8-azabicyclo[3.2.1]oct-3-yl}benzamide] | – | 0% | 0.25 mg/kg | 0.1 nM
NC(=O)c1cccc([C@H]2C[C@H]3CC[C@@H](C2)N3CCCn2cc(-c3ccc(F)cc3F)nn2)c1 [Example 9, 3-endo-(8-{3-[4-(2,4-Difluorophenyl)-[1,2,3]-triazol-1-yl]-propyl}-8-azabicyclo[3.2.1]oct-3-yl)benzamide] | 0.0501 nM | -1% | – | –
